# Like-named read-outs stand apart in the source and are kept apart here. Where a SMILES comes first, the peptide text is derived from it. Where no end group is shown, it is not given here. The star is where a group is joined. DOTA = O=C(O)CN1CCN(CC(=O)O)CCN(CC(=O)*)CCN(CC(=O)O)CC1
# Key:
# [1] = system: human prostate carcinoma PC-3 cells; details: for Incubation time to maximal radioligand binding / binding saturation: ^111In- or ^125I-labeled peptide, medium without FCS, gamma-counter; for Binding as % of the native molecule (DUP-1) capacity: ^125I-labeled
# Experimental: Direct radiolabeling with ^125I was performed on the tyrosine moiety using the chloramine-T method. A 10^−3 M aqueous solution of the respective peptide (5–25 µL, 5–25 nmol) was added to 0.25 M phosphate buffer (25 µL, pH 7.5). A radioactivity amount of 1–10 MBq ^125I- or ^131I- was added to this mixture and vortexed for 30 sec. The labeling reaction was quenched by adding 10 µL of a saturated aqueous methionine solution. The radiolabeled peptide was purified by HPLC on a Lichrosorb RP-select B 5 µm, 250 × 4 mm column using a linear solvent gradient system.
# Radiolabeling was performed by complexation with ^111In-chloride. One microliter of a 10^−3 M solution of DOTA-Lys-DUP-1 in 50% dimethyl sulfoxide in water was mixed with sodium acetate buffer (25 µL, pH 5), and 10 MBq ^111InCl3 (PerkinElmer, Rodgau) was added. The solution was heated at 95 °C for 25 min. Quality control was performed by HPLC showing a radiochemical purity >95%.
# [2] = system: human prostate carcinoma PC-3 cells; format: binding; details: for Binding inhibition by unlabeled DUP-1: ^125I-labeled ligand on PC-3 cells, competitor unlabeled DUP-1 at 10^-4 M
# Experimental: The human prostate carcinoma cell line PC-3 (American Type Culture Collection, Manassas, VA, USA) was cultivated at 37 °C in a 5% CO2 incubator in RPMI 1640 with Glutamax containing 10% FCS (Invitrogen, Karlsruhe, Germany) and 25 mmol/L HEPES.
# 200,000 cells were seeded in 6-well plates and cultivated for 24 hours. The medium was replaced by 1 mL fresh medium (without FCS). ^125I-labeled or ^111In-labeled peptide was added to the cell culture (1–2 × 10^6 cpm per well) and incubated for various time periods. Thereafter, the cells were washed thrice with 1 mL phosphate buffer saline (PBS) and subsequently lysed with 0.3 mol/L NaOH (0.5 mL). Radioactivity was measured with a γ-counter and calculated as percentage applied dose per 10^6 cells. For competition experiments co-incubation was performed with the unlabeled peptide at a defined concentration. If BSA or dry milk powder was used as blocking agents, it was added to a final concentration of 1% in medium without FCS.
# [3] = human serum; details: 37 °C, up to 6 hours
# [4] = system: PC-3 tumors; assay: in vivo; details: mouse
# Experimental: (§1) Male 6-week-old BALB/c nu/nu mice were obtained from Charles River WIGA (Sulzfeld, Germany) and housed in VentiRacks. For inoculation of the tumors, a Matrigel matrix/cell (5 × 10^6 cells) suspension was injected subcutaneously into the flank of the animals. Tumors were grown up to a size of ~1.0 cm^3. ^111In-labeled or ^131I-labeled peptide was injected via the tail vein into the animals, carrying PC-3 prostate tumors. At defined time points post injection, the mice were sacrificed. Tumor, blood and selected tissues (heart, lung, spleen, liver, kidney, muscle, intestinum and brain) were removed, drained of blood, weighed, and the radioactivity was measured with a γ-counter (LB 951G, Berthold Technologies). The percentage injected dose per gram of tissue (%ID/g) was calculated. All animal experiments were carried out in conformity with the German law for protection of animals and are in compliance with European laws.
# [5] = native DUP-1, not among the peptides tested here; earlier work; cited from earlier work
# [6] = system: PC-3 tumors; details: cited from earlier work; for Tumor binding: iodinated native ligand
# Experimental: A linear peptide with affinity for prostate carcinoma was identified in our group using phage display techniques. The peptide, […], was isolated on prostate-specific membrane antigen-negative cells and evaluated both in vitro and in vivo. Chemical synthesized […] was tested for binding affinity, specificity, kinetics and internalization. In vivo tumor accumulation and organ distribution was evaluated in a nude mouse model, carrying subcutaneously human prostate carcinoma cells. […] A possible explanation for the rapid clearance is the higher polarity of the DOTA conjugate.
# [7] = system: human prostate carcinoma PC-3 cells; parameters: method as in PMID 15671538; details: ^125I-DUP-1, 'has been shown to be'; earlier work; cited from earlier work
# [8] = in vivo; details: male, BALB/c nu/nu, mouse, iv, total radioactivity; for tissue to tissue ratio at 0.25 h / tissue to tissue ratio at 1 h: Tumor-to-organ ratio
# Experimental: as §1
# [9] = PC-3 cells, after 10 min incubation
# [10] = PC-3 cells, after 60 min incubation
# [11] = ^125I-labeled fragments, PC-3 cells, after binding saturation
molecule,measurement,setting,value
"fRPNRAQDYNTN [dPhe-DUP-1, DUP-1 with first N-terminal amino acid 1Phe replaced by the D-isoform]",Incubation time to maximal radioligand binding / binding saturation,[1]; PC-3 cells,60 min
same,In vitro binding capacity relative to DUP-1,"[1]; PC-3 cells, summary in discussion, incubation time not printed at place",about 25%
same,Binding as % of the native molecule (DUP-1) capacity,[1]; [9],about 8.5%
same,Binding as % of the native molecule (DUP-1) capacity,[1]; [10],about 25%
same,Binding inhibition by unlabeled DUP-1,[2],up to 94%
QDYNTN [DUP-7-12],Binding as % of the leader peptide DUP-1,[1]; [11],reduced binding capacity to the background level
H-FRPNRAQDYNTNK(DOTA)-NH2 (SMILES C[C@H](NC(=O)[C@H](CCCNC(=N)N)NC(=O)[C@H](CC(N)=O)NC(=O)[C@@H]1CCCN1C(=O)[C@H](CCCNC(=N)N)NC(=O)[C@@H](N)Cc1ccccc1)C(=O)N[C@@H](CCC(N)=O)C(=O)N[C@@H](CC(=O)O)C(=O)N[C@@H](Cc1ccc(O)cc1)C(=O)N[C@@H](CC(N)=O)C(=O)N[C@H](C(=O)N[C@@H](CC(N)=O)C(=O)N[C@@H](CCCCNC(=O)CN1CCN(CC(=O)O)CCN(CC(=O)O)CCN(CC(=O)O)CC1)C(N)=O)[C@@H](C)O),cleaved bond,[3],"phenylalanine1-R2, first_seen, 5 min"
"C-FRPNRAQDYNTN-C (disulfide) [cDUPc, DUP-1 with N- and C-terminal cysteines, cyclized via a disulfide bridge]",Incubation time to maximal radioligand binding / binding saturation,[1]; PC-3 cells,60 min
same,Binding as % of the native molecule (DUP-1) capacity,[1]; [9],about 7%
same,Binding as % of the native molecule (DUP-1) capacity,[1]; [10],about 19%
same,Binding inhibition by unlabeled DUP-1,[2],up to 90%
FRPNRAY [DUP-1-6-Y],Binding as % of the leader peptide DUP-1,[1],about 82%
"NRAQDY [DUP-4-9, fragment NRAQDY, middle part of DUP-1]",Activity in kidneys,[4],15.48 % ID/g
same,Radioactivity in blood,[4],about 5.5 % ID/g
same,Incubation time to maximal radioligand binding / binding saturation,[1]; PC-3 cells,30 min
same,Binding as % of the leader peptide DUP-1,[1]; [11],about 70%
same,IC50,"[2]; ^125I-labeled DUP-4-9 on PC-3 cells, unlabeled peptide as competitor, read-out: IC50",3.5 µM
same,Binding inhibition by unlabeled DUP-1,[2],about 99%
"FRPNRAQDYNTN [DUP-1, tested ^125I-/^131I-labeled]",Incubation time to maximal radioligand binding / binding saturation,[1]; PC-3 cells,5 min
same,"Binding, percentage applied dose per 10^6 cells","[1]; PC-3 cells, radiolabeled peptide, maximal binding",about 12 % applied dose per 10^6 cells
same,Serum half life,[5],2 min
same,Tumor binding,[6]; 15 min circulation in mice,about 7%
same,Tumor binding,[6]; 45 min circulation in mice,about 4%
same,Kidney radioactivity,"[6]; iodinated peptide, 15 min",about 8 % ID/g
same,Increase of radioligand-binding in the prostate tumor compared to normal prostate tissue,"[6]; organ distribution, nude mouse model",up to 300%
same,IC50,[7],0.177 µM
"C[C@H](NC(=O)[C@H](CCCNC(=N)N)NC(=O)[C@H](CC(N)=O)NC(=O)[C@@H]1CCCN1C(=O)[C@H](CCCNC(=N)N)NC(=O)[C@@H](N)Cc1ccccc1)C(=O)N[C@@H](CCC(N)=O)C(=O)N[C@@H](CC(=O)O)C(=O)N[C@@H](Cc1ccc(O)cc1)C(=O)N[C@@H](CC(N)=O)C(=O)N[C@H](C(=O)N[C@@H](CC(N)=O)C(=O)N[C@@H](CCCCNC(=O)CN1CCN(CC(=O)O)CCN(CC(=O)O)CCN(CC(=O)O)CC1)C(N)=O)[C@@H](C)O (111In complex, metal not drawn) [DOTA-Lys-DUP-1] (H-FRPNRAQDYNTNK(DOTA)-NH2)",tissue uptake at 0.25 h,[8],2.1 %ID/g
same,tissue uptake at 1 h,[8],0.14 %ID/g
same,tissue to tissue ratio at 0.25 h,[8]; Blood,0.79 ± 0.198
same,tissue to tissue ratio at 1 h,[8]; Blood,3.45 ± 0.261
same,tissue to tissue ratio at 0.25 h,[8]; Brain,18.6 ± 4.05
same,tissue to tissue ratio at 1 h,[8]; Brain,14.8 ± 4.73
same,tissue to tissue ratio at 0.25 h,[8]; Heart,1.99 ± 0.459
same,tissue to tissue ratio at 1 h,[8]; Heart,7.79 ± 0.578
same,tissue to tissue ratio at 0.25 h,[8]; Intestine,2.46 ± 0.391
same,tissue to tissue ratio at 1 h,[8]; Intestine,4.79 ± 2.13
same,tissue to tissue ratio at 0.25 h,[8]; Kidney,0.124 ± 0.028
same,tissue to tissue ratio at 1 h,[8]; Kidney,0.063 ± 0.012
same,tissue to tissue ratio at 0.25 h,[8]; Liver,2.35 ± 0.196
same,tissue to tissue ratio at 1 h,[8]; Liver,3.81 ± 0.07
same,tissue to tissue ratio at 0.25 h,[8]; Lung,0.823 ± 0.167
same,tissue to tissue ratio at 1 h,[8]; Lung,2.9 ± 0.142
same,tissue to tissue ratio at 0.25 h,[8]; Muscle,3.39 ± 0.833
same,tissue to tissue ratio at 1 h,[8]; Muscle,8.05 ± 6.85
same,tissue to tissue ratio at 0.25 h,[8]; Spleen,3.02 ± 0.793
same,tissue to tissue ratio at 1 h,[8]; Spleen,5.71 ± 1.09
same,tissue to tissue ratio at 0.25 h,[8]; Tumor,1
same,tissue to tissue ratio at 1 h,[8]; Tumor,1
same,IC50,[2]; 24 h,3.3 µM

# — PMC6259618 (Molecules, 2011)
